Columns and labels:
Puccinia arachidis [1] = experiment: Antifungal activity against Puccinia arachidis in ground nut assessed as rust pustule count at 10 ug/cm'2 measured after 12 days from inoculation; format: functional
Puccinia arachidis [2] = experiment: Antifungal activity against Puccinia arachidis in ground nut assessed as rust pustule count at 1 ug/cm'2 measured after 12 days from inoculation (reference value: 22.73 %); format: functional

SMILES	inhibition (INH) (Puccinia arachidis [1]) [%]	inhibition (INH) (Puccinia arachidis [2]) [%]
COC(=O)C1(O)C2C(C)(C)C(=O)C=C[C@]2(C)[C@H]2CC3[C@H](c4ccoc4)C[C@H]4O[C@@]34C[C@@]21C (stereo partly drawn) [METHYL ISOCEDRELONATE]	2.3	7.6
CC1(C)O[C@H]2CC(=O)OC[C@]23[C@H]2CC[C@@]4(C)[C@@H](c5ccoc5)OC(=O)[C@H]5O[C@]54[C@]2(C)[C@H](O)C[C@@H]13 [LIMONOL]	62.3	37.9
CC(=O)OC1=C2C(C)(C)C(=O)CC[C@]2(C)[C@H]2CC[C@@]3(C)[C@H](c4ccoc4)C[C@H]4O[C@]43[C@]2(C)C1=O [DIHYDROCEDRELONEDIACETATE]	87	77.6
CC1(C)C(=O)C=C[C@@]2(C)C1C(O)(C(=O)O)[C@@]1(C)C[C@@]34O[C@@H]3C[C@@H](c3ccoc3)C4C[C@H]21 (stereo partly drawn) [ISOCEDRELONIC ACID]	91.4	36.9
CC1(C)C(=O)CC[C@@]2(C)C1=C(O)C(=O)[C@]1(C)[C@@H]2CC[C@@]2(C)[C@H](c3ccoc3)C[C@H]3O[C@]321 [DIHYDROCEDRELONE]	66.7	42.6
CC1(C)O[C@H]2CC(=O)OC[C@]23[C@H]2CC[C@@]4(C)[C@H](c5ccoc5)OC(=O)[C@H]5O[C@]54[C@]2(C)C(=O)C[C@@H]13 [LIMONIN]	-15.7	67.7
CC(=O)O[C@H](CC(=O)O)[C@]1(C)[C@H]2CC[C@@]3(C)[C@@H](c4ccoc4)OC(=O)[C@H]4O[C@]43[C@]2(C)C(=O)C[C@H]1C(C)(C)O [NOMILINIC ACID]	34.2	28.5
CC1(C)C(=O)C=C[C@@]2(C)C1=C(O)C(=O)[C@]1(C)[C@@H]2CC[C@@]2(C)[C@H](c3ccoc3)C[C@H]3O[C@]321 [CEDRELONE]	93.4	98.4
CC(=O)O[C@@H]1C[C@H]2C(C)(C)C(=O)C=C[C@]2(C)[C@H]2CC[C@]3(C)C(=CC(=O)[C@H]3c3ccoc3)[C@@]21C [AZADIRADIONE]	76.9	75.7
